Experimental data published in patent publication US9598466B2, “Glycopeptide constructs and uses thereof” (Sloan-Kettering Institute for Cancer Research, priority 2008, dated 2017).

Assays:
[1] = tested on: human HLA-DR; settings: literature (Southwood et al. 1998); cited from earlier work
[2] = ELISA of sera from vaccinated mice for antibodies against Gb3; assay type: in vivo, mice (C57BL/6J); settings: mice vaccinated subcutaneously, unconjugated antigen plus an adjuvant such as QS-21; sera tested against Gb3-ceramide
Protocol: Groups of five mice were vaccinated subcutaneously with Gb3-MUC5AC or Gb3-MUC5AC-KLH conjugate plus adjuvant with appropriate controls. Sera were tested against Gb3-ceramide by ELISA.
Groups of five mice (C57BL/6J, female, 6-8 weeks old) were vaccinated three times with GB3-ceramide conjugate (5 μg equivalent of GB3), MUC5Ac peptide (5 μg equivalent of MUC5Ac), GB3-MUC5Ac-SH conjugate (5 μg equivalent of GB3-MUC5AC), GB3-MUC5Ac-KLH conjugate (1, 5 and 10 μg equivalent of GB3-MUC5Ac), Globo H-KLH conjugate (5 μg equivalent of GloboH) and KLH protein alone (5 μg equivalent of KLH) in 100 μL phosphate buffered saline (PBS) either with an adjuvant (20 μg) or without adjuvant. Vaccines were administered subcutaneously to each mouse on weeks 1, 2, 3, and 7. Mice were bled 7 days after the third vaccination and forth vaccination.
The presence of antibodies was tested by an enzyme-linked immunosorbent assay (ELISA). ELISAs were performed to determine antibody response against GB3, Globo H and KLH. The ELISA plates were coated with either GB3 antigen or Globo H at 0.2 μg/well and 0.1 μg/well respectively in ethanol or KLH at 0.1 μg/well in carbonate buffer (pH 10). The GB3-coated and Globo H coated plates were kept overnight at room temperature to evaporate ethanol, and KLH coated plates were incubated at 4° C. overnight. […] Absorbance was measured at 405 nm.

## GLAYKFVVPGAATPY
[1]
  binding capacity to human HLA-DR alleles: prevalently in the nanomolar range
  number of different alleles of human HLA-DR bound: up to 9

## globotriaosyl ceramide [Gb3-ceramide]
[2]
  antibodies against Gb3 by ELISA: failed to produce antibodies against Gb3
